Assay results published in patent EP0906096B1, “USE OF HYDROXYPROLINES FOR THE MANUFACTURE OF A MEDICAMENT FOR INHIBITING LEUKOCYTE INVASION OF TISSUES” (Chephasaar Chem.-Pharm. Fabrik GmbH, priority 1996, dated 1997).

Tests used:
[1] = test system: Granulozyten; test: Adhesion of granulocytes to an endothelial layer (method of Hahne et al. 1993); assay type: cell-based
Text: Gemäß M. Hahne et al. (1993), J. Cell. Biol. 121, 655-664 wurde die IC50-Konzentration von Hydroxyprolinderivaten, die zu einer 50 %igen Reduktion der Adhäsion von Granulozyten an einer Endothelschicht führte, bestimmt. Als besonders wirksam zeigte sich die an R2 acetylierte Verbindung.

[2] = test system: Granulozyten; test: Ex vivo adhesion of volunteers' granulocytes to endothelia after oral intake; assay type: in vivo, Menschen
Text: Gesunde Probanden erhielten eine einmalige Dosis von N-Acetylhydroxyprolin zum Zeitpunkt 0. Unmittelbar vorher und zu den genannten Zeitpunkten wurde Blut abgenommen und die Leukozyten mit Hilfe der Lymphoprep-Separation (Histoprep, Biologische Arbeitsgemeinschaft GmbH, Lich, Germany) präpariert. Die Adhäsion wurde wie in M. Hahne et al. (1993), J . Cell Biol. 121, 655 - 664 beschrieben bestimmt. Die durch LPS-Stimulation erhöhte Adhäsion ist evident (⌀ im Vergieich zu LPS, Zeitpunkt ⌀).

[3] = test system: Lymphozyten und Monozyten; test: Ex vivo adhesion of volunteers' lymphocytes and monocytes after oral intake; assay type: in vivo, Menschen; conditions: 400 - 800 mg
[4] = test system: Blutplättchen; test: Ex vivo platelet function after oral intake; assay type: in vivo; conditions: volunteers, 400 - 800 mg
[5] = test system: Carrageenin-Pfotenödem, Adjuvansarthritis, Baumwollgranulom; test: Standard inflammation models (carrageenan paw oedema, adjuvant arthritis, cotton granuloma), histology; assay type: in vivo; conditions: short-term and long-term application; histological work-up
[6] = test system: eosinophiles Lungeninfiltrat; test: Acute allergic inflammation: protein-induced eosinophilic lung infiltrate in sensitised guinea pigs; assay type: in vivo, Meerschweinchen
Text: In Modellen der akuten allergischen Entzündung, wie z.

[7] = test system: ischämisch traumatisiertes Gefäßendothel; test: Post-ischaemia model (Nolte et al. 1995), leukocyte adherence in postcapillary venules; assay type: in vivo, Hamster; conditions: 50 mg/kg given 10 min before reperfusion; effect present after 0,5 and 2 hours; in all animals
Description: In dem von Nolte et al., Int. J. Microcirc. 15 (suppl 1) (1995), 9 - 16 beschriebenen Postischämiemodell beim Hamster zeigte sich, dass N-Acetylhydroxyprolin (Oxazeprol) bei Dosierungen von 50 mg/kg kurz yor Reperfusion (10 min) gegeben, die Adhäsion der Leukozyten am ischämisch traumatisierten Gefäßendothel um ca. 50 % reduzierte. Dieser Effekt war nach 0,5 und 2 Stunden vorhanden (Abb. 3). Er trat in allen untersuchten Tieren auf. Oxazeprol verhielt sich damit ähnlich wie Buflomidil (ein PDE4-Hemmer), Iloprostol (ein PhI-Analog) und monoklonale Antikörper gegen Selektine, d.h. N-Acetylhydroxyprolin verhinderte spezifisch die im Gefolge einer Noxe (Ischämie) auftretende Leukozytenadhäsion und -invasion ins Gewebe.

[8] = ex vivo, volunteers, single or repeated intake of 400 - 800 mg

CC(=O)N1C[C@H](O)C[C@H]1C(=O)O [N-Acetylhydroxyprolin, N-Acetyl-L-hydroxyprolin]
noch meßbar bei ([1]; concentration at which inhibition of granulocyte adhesion is still measurable, unit not given): 10^-9 | IC50 ([1]; concentration giving 50 % reduction of granulocyte adhesion to an endothelial layer, unit inferred): ~100 nM | Adhäsion der Granulozyten an Endothelien [2, 8]: reduzierte Adhäsion | Dauer des Effekts auf die Granulozytenadhäsion [2, 8]: 24 - 48 Stunden | durch LPS-Stimulation erhöhte Adhäsion ([2]; healthy volunteers, single dose at time 0, after 24 hours (Abb. 2)): weitgehend durch N-Acetylhydroxyprolin gehemmt | Effekte auf Lymphozyten und Monozytenadhäsion [3]: verschwanden hingegen nach wenigen Stunden | Funktion der Blutplättchen [4]: nicht tangiert | Invasion der Granulozyten [5]: deutliche reduzierte Invasion | Invasion von monozytären Leukozyten [5]: kaum verändert | Einwanderung von Granulozyten ([6]; late phase): signifikant reduziert | Einwanderung der eosinophilen Granulozyten ([6]; sensitised guinea pig, protein-induced): keinen meßbaren Effekt | Reduktion der Adhäsion der Leukozyten am ischämisch traumatisierten Gefäßendothel [7]: ca. 50%
